Measured values from EP3977982A1 (Acerus Biopharma Inc., priority 2011, dated 2012).
Where two headings read alike, the source gives them in different places.

What was measured:
[1] = formulated in ethanol/propylene glycol/water; cited from earlier work
[2] = nasal, dissolved in polyethylene glycol (200 mg/ml); cited from earlier work
[3] = cited from earlier work
[4] = nasal, cited from earlier work
[5] = biological target: T1, sex hormone binding globulin (SHBG) (Homo sapiens, UniProt P04278); settings: cited from earlier work
T1 sequence (P04278 30-402): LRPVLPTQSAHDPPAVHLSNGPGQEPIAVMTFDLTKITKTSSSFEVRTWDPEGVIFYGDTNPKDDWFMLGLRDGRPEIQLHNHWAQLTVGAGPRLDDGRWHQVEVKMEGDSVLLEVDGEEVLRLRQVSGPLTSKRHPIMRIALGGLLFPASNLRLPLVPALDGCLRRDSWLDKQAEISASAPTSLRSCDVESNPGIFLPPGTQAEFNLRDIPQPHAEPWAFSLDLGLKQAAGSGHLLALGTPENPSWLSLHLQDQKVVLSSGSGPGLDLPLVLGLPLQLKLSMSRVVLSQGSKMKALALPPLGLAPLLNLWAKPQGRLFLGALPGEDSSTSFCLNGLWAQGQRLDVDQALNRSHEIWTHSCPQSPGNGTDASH

[6] = Solubility of testosterone in water, solvents, oils and vehicles
[7] = drug substance; cited from earlier work
[8] = pKa assessment of testosterone; settings: inferred from molecular structure, no protonatable groups

CC(=O)[C@H]1CC[C@H]2[C@@H]3CCC4=CC(=O)CC[C@]4(C)[C@H]3CC[C@]12C [progesterone]
Tmax [1]: 5.5 min
Tmax [2]: 30 min
duration of serum level [2]: at least 8 hours
serum level decrease ([3]; nasal powder mixtures progesterone/cyclodextrin): ≤ 20 min
Tmax ([3]; nasal powder mixtures, co-ground and co-lyophilized progesterone/cyclodextrin): 2 to 5 min

CN(C)CC(=O)O[C@H]1CC[C@H]2[C@@H]3CCC4=CC(=O)CC[C@]4(C)[C@H]3CC[C@]12C [testosterone 17β-N,N-dimethylglycinate]
time to peak plasma concentrations ([4]; 25 mg dose): ≤ 12 min
time to peak plasma concentrations ([4]; 50 mg dose): ≤ 20 min
elimination half-lives [4]: about 55 min

C[C@]12CC[C@H]3[C@@H](CCC4=CC(=O)CC[C@@]43C)[C@@H]1CC[C@@H]2O [testosterone, Testosterone]
testosterone remaining unbound (free) ([5]; in men): about 2%
testosterone remaining unbound (free) ([5]; in women): up to 3%
testosterone levels in the gel ([6]; DMI used in conjunction with the other excipients): ≥ 8.0%
testosterone dissolved by solvent alone ([6]; Diethyleneglycol ethyl ether alone): more than 10%
testosterone dissolved by solvent ([6]; Dimethyl isosorbide (DMI)): more than 12%
solubility ([6]; acetone and isopropanol): soluble
amount an aqueous solution can contain ([6]; aqueous solution): 0.002 mg per 100 µL
solubility of testosterone in oils ([6]; castor oil): up to 4%
amount a castor oil solution can contain ([6]; castor oil solution): up to 4.5 mg per 100 µL
solubility of testosterone in oils ([6]; corn oil): 0.5%
solubility of testosterone in oils ([6]; cottonseed oil): 0.7%
solubility of testosterone in oils ([6]; isopropylmyristate): 0.8%
solubility ([6]; methanol and ethanol): freely soluble
solubility ([6]; n-heptane): insoluble
Testosterone solubility in the oil based gel ([6]; oil based TBS-1A gel (so in the source)): about 4.5%
solubility of testosterone in oils ([6]; peanut oil): 0.5%
solubility of testosterone in oils ([6]; soybean oil): 0.6%
retest period [7]: 5 years
pKa [8]: no pKa value in the range 1-14
